Measured values reported in patent publication US20060154243A1 (priority 2003, published 2006).

Key:
[1] = tested on: rabbit serum obtained by immunizing with SARS-CoV strain Frankfurt 1; type: binding
[2] = tested on: sera SARS-green, SARS-yellow, 1a, 1b, 2, 6, 37, 62 and London; type: binding, human
[3] = tested on: control serum LUMC (pooled serum of ten healthy hospital workers); type: binding, human
[4] = tested on: control serum Blood-bank (commercial negative donor pooled serum); type: binding, human

Row | Sequence | Rabbit serum linear peptides [1] | Rabbit serum looped peptides [1] | Recognition of the peptide by sera of individuals infected by SARS-CoV, form recognized [2] | Control serum LUMC linear peptides [3] | Control serum LUMC looped peptides [3] | Control Serum Blood-Bank Looped peptides [4] | Control serum Blood-bank linear peptides [4]
1 | QMTKLATTEELPDEF | 0.1 | 0.6 | recognized in linear and in looped form | – | – | – | –
2 | MTKLATTEELPDEFV | 0.1 | 0.6 | recognized in linear and in looped form | – | – | – | –
3 | PALHLVDPQIQLTIT | 1.3 | 0.4 | recognized in linear and in looped form | – | – | – | –
4 | TITRMEDAMGQGQNS | 0.1 | 0.6 | only recognized in looped form | – | – | – | –
5 | ATTEELPDEFVVVTA | 0.1 | 0.5 | recognized in linear and in looped form | – | – | – | –
6 | KLATTEELPDEFVVV | 0.2 | 0.5 | recognized in linear and in looped form | – | – | – | –
7 | LTITRMEDAMGQGQN | 0.3 | 0.3 | only recognized in looped form | – | – | – | –
8 | LCFLAFLLFLVLIML | 0.2 | 0.3 | – | 0.4 | 0.4 | 0.7 | 0.7
9 | ELTLIDFYLCFLAFL | 0.4 | 0.6 | – | 0.5 | 0.7 | 0.6 | 0.7
10 | DFYLCFLAFLLFLVL | 0.3 | 0.4 | – | 0.4 | 0.6 | 0.6 | 0.7
11 | LTLIDFYLCFLAFLL | 0.3 | 0.5 | – | 0.8 | 0.7 | 0.5 | 0.9
12 | CFLAFLLFLVLIMLI | 0.0 | 0.6 | – | 0.3 | 0.4 | 0.8 | 0.6
13 | LIDFYLCFLAFLLFL | 0.3 | 0.3 | – | 0.4 | 0.7 | 0.5 | 0.7
14 | FYLCFLAFLLFLVLI | 0.3 | 0.6 | – | 0.4 | 0.6 | 0.7 | 0.8
